{"source": "patent US10874685B2", "about": "“Pancreatic cancer therapy and diagnosis” (Deutsches Krebsforschungszentrum Stiftung des Öffentlichen …, priority 2014, dated 2020)", "key": {"[1]": {"tested_on": "pancreatic cancer cell lines (PANC-1, CFPAC-1, CAPAN-1, MIAPaCa-2, BXPC-3)", "assay": "Sulforhodamine B (SRB) cytotoxicity assay on pancreatic cancer cell lines", "type": "cell-based, human", "details": "increasing concentration, 72 h", "protocol": "(§1) PANC-1, CFPAC-1, CAPAN-1, MIAPaCa-2, BXPC-3 and fibroblast cells were seeded for 24 h and were exposed to increasing concentration of Pimozide and vehicle for 72 h (FIG. 3A). The same procedure was followed for treatment of cancer cell lines with L741 (FIG. 3B). Cell viability was characterized using a SRB assay. Values are the mean+/−SD of six independent experiments.\n(§2) Five pancreatic ductal cancer cell lines with various degree of differentiation were obtained from American Type Culture Collection (Rockville, USA) and Normal Human Dermal Fibroblasts (NHDF) obtained from PromoCell. BXPC-3 (moderately differentiated) as well as poorly differentiated human pancreatic cancer cell lines, PANC-1 and MIAPaCa-2, have been established from primary tumor. AsPC-1, CAPAN-1 and CFPAC-1 which represent well differentiated cell lines was isolated from ascites and liver metastasis of pancreas adenocarcinoma. All cell lines contain mutation in P53 whereas K-ras mutation reported in all with the exception of BxPc3. BRCA2 mutation just reported in CAPAN-1 cells.\n(§3) Sulforhodamine B sodium salt (sigma) was used to assess cell viability and IC50 determination of pancreatic cancer cells. […] Cell viability was specified by using plate reader (TECAN) with measuring of absorbance at 570 and 650 nm (background) in treated or untreated 96 well plate."}, "[2]": {"tested_on": "PANC-1, MIAPaCa-2 and AsPC-1 cell lines", "assay": "PDAC cell line growth curves under combination therapy", "type": "cell-based, human", "details": "over time", "excerpt": "FIGS. 11A and 11B show PDAC cell line growth curves following combination therapy with DRD2 antagonists, 2-deoxy-D-glucose, and atorvastatin. Percentage cell growth shown on the y-axis following treatment with control (blue line), pimozide (Pim, gray line), atorvastatin and 2-deoxy-D-glucose (ATR+2-DG, red line) and combination of Pim and ATR+2-DG (green line) over time in PANC-1 (top), MIAPaCa-2 (middle) and AsPC-1 (bottom) cell lines (FIG. 11A). Haloperidol (Hal, gray line) is used as the DRD2 antagonist for use alone or in combination with ATR+2-DG as described in A (FIG. 11B). Dosage are indicated for each cell line.\nPDAC cell proliferation was measured during pharmacological inhibition of DRD2 alone and in combination with blockade of glycolysis and cholesterol synthesis. To suppress glycolysis, 2-DG, a glucose analog which is a competitor inhibitor of glucose metabolism, was used. To inhibit cholesterol synthesis, atorvastatin (ATR), a competitive inhibitor of 3-hydroxy-3-methylglutaryl-coenzyme A (HMG-CoA) reductase in the cholesterol biosynthesis pathway was used."}, "[3]": {"tested_on": "MIAPaCa-2, PANC-1 and AsPC-1 cells", "assay": "Free cholesterol measurement (Filipin staining) in PDAC cell lines", "type": "cell-based, human", "details": "10 μM, 18 hours; vs DMSO", "excerpt": "Measurement of 2-deoxy-D-glucose uptake shown on the y-axis relative to control by PDAC cell lines (MIAPaCa2, left; PANC-1, middle; AsPC1, right) treated with DMSO (C), pimozide (P) or haloperidol (H) (FIG. 10A). Abundance of free cholesterol, as measured by staining with filipin, after treatment with haloperidol (H) or pimozide (P) in PDAC cell lines (MIAPaCa2, left; PANC-1, middle; AsPC1, right) (FIG. 10B top). Representative micrographs of filipin-labelled cholesterol. PDAC (MIAPaCa2, top; PANC-1, middle; AsPC1, bottom) cells were seeded for 24 hours and treated with 10 μM haloperidol (H) or pimozide (P) or DMSO for 18 hours (FIG. 10B bottom). Red-fluorescence represents propidium iodide (PI)-stained nuclei and blue-fluorescence represents filipin-stained cholesterol. mRNA levels of genes relative to R-actin shown on the y-axis involved in cholesterol biosynthesis (from left to right: SREBP1, SREBP2, INSIG1, HMGCR, LDLR) measured by qRT-PCR 18 hours post-treatment with DMSO (C), haloperidol (H) or pimozide (P) in three PDAC cell lines (MIAPaCa2, top; PANC-1, middle; AsPC1, bottom) (FIG. 10C).\nCancer cells were seeded for 24 hours and treated with pimozide, haloperidol or DMSO for 18 hours. The cells were fixed with paraformaldehyde, stained with Filipin™ and propidium iodide (PI), and photographed. Filipin™ is a fluorescent polyene antibiotic that binds to free cholesterol. […]"}, "[4]": {"tested_on": "Fibroblast (non-cancer cells)", "assay": "Sulforhodamine B (SRB) cytotoxicity assay on fibroblasts", "type": "cell-based, human", "details": "increasing concentration, 72 h", "protocol": "as §1, §2, §3"}, "MIAPaCa-2 cells": {"tested_on": "MIAPaCa-2 cells", "assay": "Orthotopic pancreatic tumor mouse model treated with DRD2 antagonists", "type": "in vivo, mice", "details": "compared to vehicle", "protocol": "Two million MIAPaCa-2 cells were resuspended in 10 μL Matrigel (BD Biosciences, San Jose, Calif.) were orthotopically implanted into the tail of the pancreas of 6-week-old Nod scid gamma animals (Jackson Labs, Bar Harbor, Me.) (day 1). When tumors were palpable (day 27), mice were randomized into 2 groups (n=7 in control group and n=9 in haloperidol group) and injected intraperitoneally with either haloperidol (10 mg/kg) or solvent (dimethylsulfoxide [DMSO] control group) for 12 days. The experiment was terminated when control mice appeared moribund. Weight of the animal and final tumor weight and volume were measured."}, "MIAPaCa-2 xenograft": {"tested_on": "MIAPaCa-2 xenograft", "assay": "Combination therapy in NSG mice, MIAPaCa-2 xenograft model", "type": "in vivo", "details": "i.p. 16 days; pimozide 10 mg/kg daily; gemcitabine 20 mg/kg every 4 days", "from_the_text": "Tumor volumes normalized to initial measurement shown in the y-axis every four days following treatment with either vehicle (gray line), the chemotherapeutic gemcitabine (green line), a combination therapy of 2-deoxy-D-glucose, atorvastatin and pimozide (2DG+ATR+Pim, redline), or a combination therapy of 2DG+ATR+Pim and gemcitabine (2DG+ATR+Pim+Gem, red dashed line) (FIG. 12A). […] Tumor weight (FIG. 12C) and volume of samples (FIG. 12D) harvested following treatment with, from left to right, control (Vehicle), 2DG+ATR, Pim alone, Pim+2DG+ATR, Gem alone, 2DG+ATR+Gem, Pim+Gem, or Pim+2DG+ATR+Gem.\nNOD severe combined immunodeficiency gamma (NSG) mice were subcutaneously injected in the right flank with five million MIAPaCa-2 cells. Once tumors were detectable (200 mm^3), mice were randomized into 8 groups (5 in each group) and treated through intraperitoneal injection as indicated for 16 days. All drugs were given every day whereas gemcitabine was given every 4 days, alone or in combination. Experiment was terminated when control animals became moribund. The growth of tumors was measured every 4 days. Tumors were harvested and photographed. Tumor weights and volumes were measured.\nThe efficacy of the combined treatment approach was investigated using a MIAPaCa-2 xenograft model of pancreatic cancer."}, "[5]": {"tested_on": "KPC-023, KPC-01 and KPC-LM pancreatic cancer cell lines", "assay": "Viability of primary and metastatic pancreatic cancer cell lines isolated from KPC mice", "type": "cell-based", "details": "primary (KPC-023, KPC-01) and metastatic (KPC-LM) lines"}}, "note": "Entries after “also recorded” stand apart in the source; their conditions may differ."}
{"smiles": "O=c1[nH]c2ccccc2n1C1CCN(CCCC(c2ccc(F)cc2)c2ccc(F)cc2)CC1", "note": "[pimozide]", "values": [{"measurement": "cell viability of pancreatic cancer cell lines", "setting": "[1]", "result": "Potent toxicity effect; also recorded: dose dependent toxicity effect"}, {"measurement": "cell growth", "setting": "[2]", "result": "reduced cell growth"}, {"measurement": "abundance of free cholesterol (Filipin staining)", "setting": "[3]", "result": "increased the abundance of free cholesterol; also recorded: enhanced glucose and cholesterol uptake"}, {"measurement": "cell viability of fibroblasts versus cancer cells", "setting": "[4]", "result": "not as much to Fibroblast"}, {"measurement": "metastatic dissemination", "setting": "MIAPaCa-2 cells", "result": "reduces tumor volume, metastasis"}, {"measurement": "tumor volume", "setting": "MIAPaCa-2 cells; haloperidol 10 mg/kg intraperitoneally for 12 days", "result": "reduces tumor volume"}, {"measurement": "tumor volume", "setting": "MIAPaCa-2 xenograft", "result": "reduced tumor weight and volume"}, {"measurement": "tumor weight", "setting": "MIAPaCa-2 xenograft", "result": "reduced tumor weight"}, {"measurement": "viability of KPC mouse pancreatic cancer cell lines", "setting": "[5]", "result": "sensitive; also recorded: Dose-dependent effects"}]}
